Assay results taken from US11613552B2, “Pharmaceutical agents, compositions, and methods relating thereto” (Alltech, Inc., priority 2017, dated 2023).

Columns and labels:
[1] = test system: G6pc; test: QRT-PCR of 8-CPT/Dex-induced G6pc expression in AML-12 cells; assay type: cell-based, mouse; conditions: for G6pc mRNA level normalized by non-8-CPT/Dex-treated group: with 8-CPT/Dex (8-CPT/Dex alone 41.5)
Method: For RNA analysis of the diabetic stimuli-induced G6pc expression, the AML-12 cells were pretreated without or with Compound #43 (150 or 300 ppb) in 10% FBS but ITS/Dex-free DMEM/F12 media for 24 hr. Then these cells were washed twice with PBS remove any residual sera, and incubated with Compound #43 (150 or 300 ppb) in the presence or absence of insulin (10 or 100 nM), or 0.1 mM 8-CPT (Sigma) and 0.5 μM Dex in serum-free plain DMEM/F12 media for another 6 hours.
(§1) Total RNA from saline- or selenium compound-treated Lepr^db/db mice was isolated using a Qiagen RNAeasy RNA isolation kit according to the Manufacturer's protocol. Total RNA from cultured cells was isolated using Trizol (Invitrogen) according to the manufacturer's protocol, and then incubated with DNase I to remove any potential contaminating genomic DNA. RNA samples were subjected to real-time PCR (QRT-PCR) analysis using Applied-Bioscience's RT kit and predesigned Taqman probes (Invitrogen), as described previously (Lan et al EMBO J 2003). Data were normalized by Actin B (Actb) mRNA levels in each sample, and are presented as mean±SEM of 3-5 samples.

[2] = test system: G6pc; test: QRT-PCR of G6pc mRNA in livers of Lepr^db/db mice; assay type: in vivo, mouse; conditions: 25 μg selenium/kg ip daily, 52 days (FIG. 9)
Method: Male Lepr^db/db mice (C57BL/6J strain, purchased from The Jackson Laboratory) at 38-days of age were intraperitoneally injected daily with physiological saline ([…]) containing 0.2% DMSO, Compound #50, or Compound #43 (25 μg selenium equivalent of each compound per kilogram body weight, diluted in the sterile physiological saline) for 52 days. After the treatment, livers were collected and subjected RNA analysis.
as §1

[3] = test system: Glut4; test: QRT-PCR of Glut4 mRNA in AML-12 cells; assay type: cell-based, mouse
Method: For RNA analysis of basal Glut4 (Slc2a4) expression (in the absence of diabetic stimuli 8-CPT/Dex), amplified AML-12 cells were cultured on 24-well (1×10^5 cells/well) plates overnight in 10% FBS ITS- and Dex-free DMEM/F12 media. These cells were washed twice with PBS to remove residual sera and then were incubated with vehicle (0.024% DMSO) or with Compound #43 (300 ppb) in serum-free DMEM/F12 media for 24 hours.
For RNA analysis of Glut4 expression in AML-12 cells cultured under simulated diabetic conditions, amplified AML-12 cells were cultured on 24-well (2×10^5 cells/well) plates in 10% FBS ITS- and Dex-free DMEM/F12 media overnight. Then these cells were washed twice with PBS to remove any potential residual sera and then were serum-starved in plain DMEM/F12 media overnight. These serum-starved AML-12 cells were then incubated with vehicle (0.024% DMSO) or with Compound #43 (300 ppb) in the presence of diabetic stimuli, 0.1 mM 8-CPT (Sigma) and 0.5 μM Dex, in serum-free plain DMEM/F12 media for 6 and 24 hours.
Total liver RNA from saline- or Compound #43-treated Lepr^db/db mice was isolated using a Qiagen RNAeasy RNA isolation kit according to the Manufacturer's protocol. Total RNA from cultured cells was isolated using Trizol (Invitrogen) according to the manufacturer's protocol, and then incubated with DNase I to remove any potential contaminating genomic DNA. […]

[4] = Serum insulin, ALT and creatinine assays in Lepr^db/db mice; assay type: in vivo, mouse; conditions: 0.136 mg/kg ip daily
Method: Male Lepr^db/db mice at 38 days of age were intraperitoneally (ip) injected daily with physiological saline ([…]) containing 0.2% DMSO, and Compound #43 (0.136 mg per kilogram body weight, diluted in sterile physiological saline) for 52 days. Sera from 3-month-old wild-type (non-diabetic) C57 mice were also collected. After the treatments, these serum samples were collected and subjected to insulin, ALT and creatinine assays.
The serum levels of insulin, ALT and creatinine were determined using Themo-Fisher Scientific's Insulin Mouse ELISA kit (Cat #EMINS), Sigma's ALT Activity Assay kit (Cat #MAK052), and Abcam's Creatinine Assay kit (Cat #Ab65340) according to the manufacturer's protocol, respectively.

Compound	effect on 8-CPT/Dex-induced G6pc expression ([1]; 10 nM and 100 nM insulin, 6 hr)	reduction of G6pc mRNA levels in the liver vs saline [2]	effect on Glut4 mRNA expression ([3]; 300 ppb with 8-CPT/Dex, 6 and 24 hours (FIG. 16B))	increase of basal Glut4 mRNA expression ([3]; 300 ppb, serum-free, 24 hours (FIG. 16A))	reduction of 8-CPT/Dex-induced G6pc expression vs 8-CPT/Dex group ([1]; 150 and 300 ppb alone)	effect on 8-CPT/Dex-induced G6pc expression ([1]; 150 or 300 ppb co-treated with 100 nM insulin)	G6pc mRNA level normalized by non-8-CPT/Dex-treated group ([1]; 150 ppb, Column #5 FIG. 11)	G6pc mRNA level normalized by non-8-CPT/Dex-treated group ([1]; 300 ppb, Column #8 FIG. 11)	decrease of serum insulin levels ([4]; 52 days (FIG. 24A))	serum ALT levels ([4]; 52 days (FIG. 24B))	serum creatinine levels ([4]; 52 days (FIG. 24C))
insulin: insulin purchased from Sigma, positive control	significantly decreased 8-CPT/Dex-induced G6pc expression	–	–	–	–	–	–	–	–	–	–
C[Se]C[C@H]1O[C@@H](n2cnc3c(N)ncnc32)C(OC(C)=O)C1OC(C)=O (some centres unmarked) [Compound #43, Adenosine, 5′-Se-methyl-5′-selino-, 2′,3′-diacetate]	–	about 56%	significant increase in Glut4 mRNA expression	about 2.1 fold	~68%	almost completely abolished 8-CPT/Dex-induced G6pc expression	13	13.5	about 80%	significant decrease of serum ALT levels	no significant change in serum creatinine levels
